Laboratory results taken from a melting point compilation (Tetko et al.).

Structure (SMILES)	melting point [°C]
CC(=O)N1CCN(Cc2cccc(N)n2)CC1	169 to 171
Cn1cc(C(=O)CBr)c2ccccc21	132 to 134
CC(C)(C)OC(=O)NCc1nnn[nH]1	153 to 155
Cn1cc(C#N)cc1C(=O)O	239 to 241
CC(C)(C)OC(=O)Nc1ccc(CC#N)cc1	119 to 121
O=C(O)C1CCCN(C2=NS(=O)(=O)c3ccccc32)C1 (stereo not given)	205 to 207
CCCc1cnc(N)s1	43 to 45
Cc1ccc(NN)nn1	107 to 109
Nc1ccnc2ncnn12	264 to 266
O=[N+]([O-])c1cc([N+](=O)[O-])c(Br)cc1F	92 to 94
Nc1cccc(Cn2cnc3ccccc32)c1	168 to 170
CC1CN(S(=O)(=O)CCN)CC(C)O1 (stereo not given)	73 to 75
CCOc1ccc(OCC2CO2)cc1 (stereo not given)	53 to 55
c1ccc2oc(C3CCNCC3)nc2c1	111 to 113
Clc1nccc(N2CCOCC2)n1	111 to 113
COc1ccc(C(=O)CNC(=O)CCC(=O)O)cc1	167 to 169
Cc1cc(F)cc(C(=O)O)c1N	191 to 193
COC(=O)c1cc2ccc(C)cc2[nH]1	131 to 133
CCn1nccc1C=CC(=O)O	151 to 153
O=Cc1cn(-c2ccccc2)nc1-c1ccncc1	153 to 155
N#Cc1ccc(CCC(=O)O)cc1	137 to 139
NC(=O)N1CC=C(c2c[nH]c3ccccc23)CC1	199 to 201
CC1CCC(NC2CCC(O)CC2)CC1 (stereo not given)	143 to 145
CC(=O)c1ccc(S(=O)(=O)CC(=O)O)cc1F	149 to 151

Structure (SMILES)	melting point [°C]
O=C(O)CCC(=O)N1CCSc2ccccc21	134 to 136
Sc1nnc(-c2ccc[nH]2)o1	205 to 207
NC(=O)C1CCN(c2ccc(N)cc2)CC1	205 to 207
Cc1ccc(NC(=O)NC(=O)CCl)c(C)c1	159 to 161
Cc1cc(S(N)(=O)=O)cc([N+](=O)[O-])c1C	180 to 182
CS(=O)(=O)OCCN1C(=O)c2ccccc2C1=O	140 to 142
N#Cc1ccccc1CN1CCCC1C(N)=O (stereo not given)	88 to 90
Sc1nnnn1-c1ccccc1	145 to 147
Cc1cc(S(N)(=O)=O)cc(N)c1C	159 to 161
CN(C(=O)CCl)C(C)(C)C#N	55 to 57
NC(=O)COc1ccc(Cl)cc1S(N)(=O)=O	214 to 216
Cc1nn2cccnc2c1C(=O)O	176 to 178
CN(C)CCCNC(N)=S	66 to 68
C=CCN1C(=O)C(=NN)c2ccccc21	129 to 132
COC(=O)c1cccc(-c2cccc(C(=O)OC)c2)c1	99 to 101
Cc1csc(NC2CC2)n1	64 to 66
CN(C)CC(O)Cn1cc(N)cn1 (stereo not given)	68 to 70
O=[N+]([O-])c1cc2c(cc1Br)OCCO2	167 to 169
NCc1ccc(OCc2ccccc2)cc1	51 to 53
CC1CC(C(=O)O)CC(=O)N1 (stereo not given)	159 to 161
CSC(C(=O)O)c1ccccc1 (stereo not given)	75 to 77
NC1(C(=O)O)CCN(Cc2ccccc2)C1 (stereo not given)	216 to 218
O=C1CC(CO)CN1CCc1ccccc1 (stereo not given)	65 to 67
NC(CCCN1CCCCC1)=NO	89 to 91

Structure (SMILES)	melting point [°C]
N#Cc1ccc(S(N)(=O)=O)cc1C(F)(F)F	195 to 197
c1cc2c(cn1)ncn2C1CC1	53 to 55
O=Cc1cccc2nccn12	123 to 125
C#CCn1cnc2c(N)ncnc21	184 to 186
Oc1ccc2c(c1)OCC2O (stereo not given)	104 to 106
Cn1cc(N)cc(Br)c1=O	159 to 161
COCCOc1ccc(C(C)=O)cc1OC	85 to 87
O=C(CCl)Nc1ccccc1C(=O)O	185 to 187
NC(=S)Nc1ccccc1Oc1ccccc1	125 to 127
CN(C)CC(O)C(F)(F)F (stereo not given)	63 to 65
NCCCNC(=O)c1cccc(O)c1	136 to 138
COC(=O)CCNc1ccc(C)cc1	59 to 61
NC(CN1CCCCCC1)=NO	124 to 126
O=C(O)CCS(=O)(=O)c1ccc(Cl)cc1	181 to 183
CS(=O)(=O)C1CSCCN1 (stereo not given)	115 to 117
NC(=S)Nc1cc(F)cc(F)c1	149 to 151
NC(=O)C1CC(O)CN1 (stereo not given)	117 to 119
O=C(Nc1ccn[nH]1)OCc1ccccc1	194 to 196
CCn1c(C)cc(C(=O)CCl)c1C	89 to 91
O=C1CCc2cc(F)c([N+](=O)[O-])cc2N1	154 to 156
O=C1NCCN2CCCC12 (stereo not given)	73 to 75
CCOc1ccc([N+](=O)[O-])cc1CO	102 to 104
COc1cc(C(=O)O)cc([N+](=O)[O-])c1OC	193 to 195

Next, values leading:

melting point [°C]	Structure (SMILES)
114 to 116	O=C1CCc2c(F)cc(Br)cc21
174 to 176	Nc1ccc2[nH]c3c(c2c1)CCCC3
218 to 222	Nc1ccc(-c2nc3ccccc3[nH]2)cc1
162 to 164	O=C(O)c1cnn(-c2ccc(C(F)(F)F)cn2)c1C(F)(F)F
70 to 72	OCc1ccc(Br)cc1Cl
126 to 128	Nc1ccnc(-c2ccccc2)c1
162 to 164	O=C(O)c1nc(C2CC2)n(-c2ccccc2Cl)n1
61 to 63	O=Cc1nc(-c2ccccc2)cs1
87 to 89	ClCc1nnc(-c2ccc(Cl)cc2Cl)o1
161 to 163	COc1c(C(=O)O)cc(Cl)cc1[N+](=O)[O-]
235 to 237	O=C(O)c1nn(-c2cccc(Cl)c2)cc1O
149 to 151	Brc1cnc2c(c1)NCCO2
231 to 233	NS(=O)(=O)c1ccc(C(=O)O)cc1Cl
229 to 231	O=C(O)c1cc(-c2ccc(F)cc2)nc2onc(C3CC3)c12
60 to 69	O=C(O)CCOc1cccc(Br)c1
84 to 86	COC(=O)CS(=O)c1ccc(Br)cc1 (stereo not given)
104 to 106	CC(=O)Nc1ccc(Br)cc1[N+](=O)[O-]

melting point [°C]	Structure (SMILES)
158 to 160	Cc1cccc2[nH]c(CC#N)nc12
39 to 41	O=C1CCCOc2cc(Br)ccc21
235 to 237	Cc1nc(-c2ccccn2)sc1C(=O)O
120 to 122	O=C(O)c1noc(-c2cccc(F)c2)n1
179 to 181	Nn1c(S)nnc1Cc1ccccc1
252 to 254	Cc1nc(-c2ccncc2)[nH]c(=O)c1CC(=O)O
101 to 103	FC(F)(F)c1nc(Cl)c2cc(Br)ccc2n1
181 to 183	O=S(=O)(Nc1nc2ccccc2nc1Cl)c1ccc(F)cc1
201 to 203	O=C(O)Cc1cnc2ccccc2c1
184 to 186	Nc1nc(-c2cccc(-n3cnnn3)c2)cs1
59 to 61	O=C(O)C(Oc1ccc(Cl)c(Cl)c1)c1ccccc1 (stereo not given)
63 to 65	Cc1nc2cc(C(F)(F)F)ccc2s1
83 to 85	COc1ccc2cncnc2c1
138 to 140	O=C(O)c1cccc(Oc2ccc(Cl)c(Cl)c2)n1
207 to 209	Nc1c(C(=O)O)ccc2cccnc12
176 to 178	O=C(O)c1ccc(Cl)c(S(=O)(=O)N2CCOCC2)c1
239 to 241	O=C(O)c1cc(Br)cnc1S
